≈ marks a conversion by molar mass, not a printed value.
What was measured:
[1] = in vivo, 50 mg

Row | Compound | solubility (physchem; organic solvent or mixture) [mg/mL] | solubility (physchem; water) [mg/mL] | bioavailability [1]
1 | C[C@H]1[C@H](C)CC[C@]2(C(=O)O)CC[C@]3(C)C(=CC[C@@H]4[C@@]5(C)C[C@@H](O)[C@H](O)[C@@](C)(CO)[C@@H]5CC[C@]43C)[C@H]12 [asiatic acid, 2α,3β,23-trihydroxy-ursa-12-en-28-oic acid] | 33.1 (≈ 67.7 mM) | 0.03 (≈ 0.0614 mM) | 
2 | C[C@H]1[C@H](C)CC[C@]2(C(=O)O)CC[C@]3(C)C(=CC[C@@H]4[C@@]5(C)C[C@@H](O)[C@H](O)[C@@](C)(CO)[C@@H]5CC[C@]43C)[C@H]12.NC(CO)(CO)CO [comparative sample, asiatic acid tromethamine salt] |  |  | ca. 7.6%

— US8962880B2, “Amorphous asiatic tromethamine salt and preparation method thereof” (Shanghai Institute of Pharmaceutical Industry, priority 2011, dated 2015)
